In the supplement of paper PMC5303821, “Major sulfonate transporter Soa1 in Saccharomyces cerevisiae and considerable substrate diversity in its fungal family” (Nature Communications, 2017):

Key:
Details in all cases: sulfur source concentration 200 µM; S. cerevisiae S288C/BY sul1Δ sul2Δ soa1Δ with transporter ortholog inserted at SOA1 locus; sulfur-free B medium, 4% glucose, pH 6.5, sole sulfur source
[1] = system: Aspergillus nidulans_XP_661733; assay: lag phase before growth; higher = slower start of growth
Procedure: (§1)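 S. cerevisiae sul1Δ sul2Δ soa1Δ strains expressing 20 fungal SOA1 orthologs (or no transporter, 'soa1 del') were grown in liquid sulfur-free B medium, 4% glucose, pH 6.5 (7 mM K2HPO4). The strains were sulfur-starved for 3 days beforehand. Each sulfur compound was the sole sulfur source at 200 µM (sulfate also at 40 mM). OD600 curves of duplicate cultures were averaged and fitted (logistic / Richards, GroFit) to give maximal growth rate, maximal density and lag phase; temperature not stated.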

[2] = system: Ogataea parapolymorpha_XP_013935289; assay: as above
Procedure: as §1

[3] = system: Saccharomyces cerevisiae_SOA1; assay: as above
Procedure: as §1

[4] = system: Saccharomyces uvarum_SOA2; assay: as above
Procedure: as §1

[5] = system: Aspergillus nidulans (IAM 2006)_astA; assay: maximal culture density with compound as sole sulfur source (OD600); higher = better growth
Procedure: as §1

[6] = system: Aspergillus nidulans_CBF74694; assay: as above
Procedure: as §1

[7] = system: Aspergillus nidulans_CBF80346; assay: as above
Procedure: as §1

[8] = system: Aspergillus nidulans_XP_660563; assay: as above
Procedure: as §1

[9] = system: Aspergillus nidulans_XP_660670; assay: as above
Procedure: as §1

[10] = system: Aspergillus nidulans_XP_661711; assay: as above
Procedure: as §1

[11] = system: Aspergillus nidulans_XP_661733; assay: as above
Procedure: as §1

[12] = system: Aspergillus nidulans_XP_681611; assay: as above
Procedure: as §1

[13] = system: Metarhizium robertsii_XP_007821441; assay: as above
Procedure: as §1

[14] = system: Metarhizium robertsii_XP_007822519; assay: as above
Procedure: as §1

[15] = system: Metarhizium robertsii_XP_007823832; assay: as above
Procedure: as §1

[16] = system: Ogataea parapolymorpha_XP_013932458; assay: as above
Procedure: as §1

[17] = system: Ogataea parapolymorpha_XP_013935289; assay: as above
Procedure: as §1

[18] = system: Ogataea parapolymorpha_XP_013936897; assay: as above
Procedure: as §1

[19] = system: Saccharomyces cerevisiae_SOA1; assay: as above
Procedure: as §1

[20] = system: Saccharomyces eubayanus_SOA1; assay: as above
Procedure: as §1

[21] = system: Saccharomyces eubayanus_SOA2; assay: as above
Procedure: as §1

[22] = system: Saccharomyces uvarum_SOA1; assay: as above
Procedure: as §1

[23] = system: Saccharomyces uvarum_SOA2; assay: as above
Procedure: as §1

soa1 del [24] = assay: as above
Procedure: as §1

[25] = system: Aspergillus nidulans (IAM 2006)_astA; assay: maximal growth rate with compound as sole sulfur source (OD600 per h); higher = better growth / uptake of the sulfur source
Procedure: as §1

[26] = system: Aspergillus nidulans_CBF74694; assay: as above
Procedure: as §1

[27] = system: Aspergillus nidulans_CBF80346; assay: as above
Procedure: as §1

[28] = system: Aspergillus nidulans_XP_660563; assay: as above
Procedure: as §1

[29] = system: Aspergillus nidulans_XP_660670; assay: as above
Procedure: as §1

[30] = system: Aspergillus nidulans_XP_661711; assay: as above
Procedure: as §1

[31] = system: Aspergillus nidulans_XP_661733; assay: as above
Procedure: as §1

[32] = system: Aspergillus nidulans_XP_681611; assay: as above
Procedure: as §1

[33] = system: Fusarium oxysporum_ENH65823; assay: as above
Procedure: as §1

[34] = system: Metarhizium robertsii_XP_007821441; assay: as above
Procedure: as §1

[35] = system: Metarhizium robertsii_XP_007822519; assay: as above
Procedure: as §1

[36] = system: Metarhizium robertsii_XP_007823832; assay: as above
Procedure: as §1

[37] = system: Ogataea parapolymorpha_XP_013932458; assay: as above
Procedure: as §1

[38] = system: Ogataea parapolymorpha_XP_013935289; assay: as above
Procedure: as §1

[39] = system: Ogataea parapolymorpha_XP_013936897; assay: as above
Procedure: as §1

[40] = system: Saccharomyces cerevisiae_SOA1; assay: as above
Procedure: as §1

[41] = system: Saccharomyces eubayanus_SOA1; assay: as above
Procedure: as §1

[42] = system: Saccharomyces eubayanus_SOA2; assay: as above
Procedure: as §1

[43] = system: Saccharomyces uvarum_SOA1; assay: as above
Procedure: as §1

[44] = system: Saccharomyces uvarum_SOA2; assay: as above
Procedure: as §1

soa1 del [45] = assay: as above
Procedure: as §1

Compound: O=C(O)CS(=O)(=O)O [Sulfoacetic acid]
- lag phase before growth [1]: 26.9 h
- lag phase before growth [2]: 8.28 h
- lag phase before growth [3]: 9.42 h
- lag phase before growth [4]: 38.2 h
- maximal culture density [5]: 0.731
- maximal culture density [6]: 0.183
- maximal culture density [7]: 0.223
- maximal culture density [8]: 0.308
- maximal culture density [9]: 0.222
- maximal culture density [10]: 0.223
- maximal culture density [11]: 0.777
- maximal culture density [12]: 0.3
- maximal culture density [13]: 0.225
- maximal culture density [14]: 0.282
- maximal culture density [15]: 0.712
- maximal culture density [16]: 0.251
- maximal culture density [17]: 1.33
- maximal culture density [18]: 0.275
- maximal culture density [19]: 1.28
- maximal culture density [20]: 0.274
- maximal culture density [21]: 0.211
- maximal culture density [22]: 0.391
- maximal culture density [23]: 1.01
- maximal culture density (soa1 del [24]): 0.216
- maximal growth rate [25]: 0.0131
- maximal growth rate [26]: 0.00286
- maximal growth rate [27]: 0.00462
- maximal growth rate [28]: 0.00621
- maximal growth rate [29]: 0.00401
- maximal growth rate [30]: 0.00399
- maximal growth rate [31]: 0.0174
- maximal growth rate [32]: 0.00636
- maximal growth rate [33]: 0.00684
- maximal growth rate [34]: 0.00346
- maximal growth rate [35]: 0.00308
- maximal growth rate [36]: 0.0177
- maximal growth rate [37]: 0.00439
- maximal growth rate [38]: 0.0296
- maximal growth rate [39]: 0.00474
- maximal growth rate [40]: 0.0325
- maximal growth rate [41]: 0.0033
- maximal growth rate [42]: 0.00305
- maximal growth rate [43]: 0.00282
- maximal growth rate [44]: 0.0314
- maximal growth rate (soa1 del [45]): 0.00385
